Measured values: patent publication US20140235643A1, “NOVEL QUINOXALINE INHIBITORS OF PI3K” (GILEAD CALISTOGA LLC, priority 2011, published 2014)

Key:
PI3Kγ (p110 gamma) = target: T1, PI3Kγ (p110 gamma) (Homo sapiens, UniProt P48736); assay: PI3K biochemical enzyme assay (Adapta universal kinase assay), p110 gamma; conditions: for increase in gamma potency compared to analog without amino substituent on the purine ring: Q17 vs Q16, Q15 vs Q14; for IC50: Table 1, lower part, read-out: PI3Kγ IC50; for inhibition at 1 µM / inhibition at 10 µM: read-out: PI3Kγ % inhib
T1 construct: purchased Invitrogen
T1 sequence (P48736 whole entry): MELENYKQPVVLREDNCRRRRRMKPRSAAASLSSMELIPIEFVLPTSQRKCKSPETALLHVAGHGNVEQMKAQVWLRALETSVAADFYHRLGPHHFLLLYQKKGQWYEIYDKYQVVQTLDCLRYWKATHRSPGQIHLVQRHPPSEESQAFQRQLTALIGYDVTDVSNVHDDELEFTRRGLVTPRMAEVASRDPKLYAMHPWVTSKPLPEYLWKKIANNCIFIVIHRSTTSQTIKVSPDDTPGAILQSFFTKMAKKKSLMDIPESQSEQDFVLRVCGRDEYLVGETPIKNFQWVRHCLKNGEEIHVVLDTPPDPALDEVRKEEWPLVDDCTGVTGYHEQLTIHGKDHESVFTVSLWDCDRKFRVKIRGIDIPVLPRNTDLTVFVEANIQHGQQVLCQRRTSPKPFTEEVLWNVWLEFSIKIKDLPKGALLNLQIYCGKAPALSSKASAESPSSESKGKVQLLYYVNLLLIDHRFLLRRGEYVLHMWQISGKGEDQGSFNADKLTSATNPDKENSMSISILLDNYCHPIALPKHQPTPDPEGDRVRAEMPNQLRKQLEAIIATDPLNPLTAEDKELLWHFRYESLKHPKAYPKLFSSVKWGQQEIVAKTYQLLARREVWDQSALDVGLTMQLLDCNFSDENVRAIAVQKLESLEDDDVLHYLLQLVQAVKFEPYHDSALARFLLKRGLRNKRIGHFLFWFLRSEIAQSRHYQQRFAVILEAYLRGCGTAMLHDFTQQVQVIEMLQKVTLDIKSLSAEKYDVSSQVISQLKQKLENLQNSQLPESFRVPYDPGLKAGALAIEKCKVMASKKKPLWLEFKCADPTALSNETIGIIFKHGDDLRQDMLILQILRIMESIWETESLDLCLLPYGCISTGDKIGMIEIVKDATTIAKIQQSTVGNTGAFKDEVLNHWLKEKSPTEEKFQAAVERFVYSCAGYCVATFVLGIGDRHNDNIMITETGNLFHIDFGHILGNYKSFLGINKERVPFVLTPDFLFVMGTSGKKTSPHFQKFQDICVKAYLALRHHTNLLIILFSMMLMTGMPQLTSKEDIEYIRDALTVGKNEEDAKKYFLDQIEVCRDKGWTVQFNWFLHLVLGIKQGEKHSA
Method: (§1) This example describes a method of obtaining in vitro activity data concerning the effect of compounds of on various PI3K isoforms. The effect of compounds on the kinase activity of Class I PI3Ks was measured at Invitrogen by using the Adapta® universal kinase assay. It was a homogenous, fluorescent based immunoassay for the detection of ADP produced by the kinase reaction. This assay can be divided into two phases: a kinase reaction phase, and an ADP detection phase. In the kinase reaction phase, all components required for the kinase reaction were added to the well, and the reaction was allowed to incubate for 60 minutes. After the reaction, a detection solution consisting of a europium labeled anti-ADP antibody, an Alexa Fluor® 647 labeled ADP tracer, and EDTA (to stop the kinase reaction) was added to the assay well. ADP formed by the kinase reaction (in the absence of an inhibitor) displaced the Alexa Fluor® 647 labeled ADP tracer from the antibody, resulting in a decrease in the TR-FRET signal.
(§2) ADP formation was determined by calculating the emission ratio from the assay well. The emission ratio was calculated by dividing the intensity of the tracer (acceptor) emission by the intensity of the Eu (donor) emission at 615 nm as shown in the equation below.
(§3) The Test Compounds were screened in 1% DMSO (final) in the well. All Substrate/Kinase Mixtures were diluted to a 2× working concentration in the appropriate Kinase Buffer as described below for the individual kinase:
The 2× p110 gamma/PIP2:PS mixture was prepared in 50 mM HEPES pH 7.5, 1 mM EGTA, 3 mM mgCl2. The final […] Kinase Reaction consisted of 3.5-26 ng p110 gamma and 50 μM PIP2:PS in 32.5 mM HEPES pH 7.5, 0.5 mM EGTA, 1.5 mM mgCl2. After the 1 hour Kinase Reaction incubation, 5 μL of Detection Mix was added.
(§4) The Detection mix consisted of EDTA (30 mM), Eu-anti-ADP antibody (30 nM) and ADP tracer. All ATP Solutions were diluted to a 4× working concentration in water and used at the Km apparent concentrations for each individual kinase.

PI3Kδ (p110δ/p85α) = target: T2, PI3Kδ (p110δ/p85α) (Homo sapiens, UniProt O00329); assay: PI3K biochemical enzyme assay (Adapta universal kinase assay), p110 delta/p85 alpha; conditions: for IC50: Table 1, lower part, read-out: PI3Kδ IC50
T2 construct: purchased Invitrogen
T2 sequence (O00329 whole entry): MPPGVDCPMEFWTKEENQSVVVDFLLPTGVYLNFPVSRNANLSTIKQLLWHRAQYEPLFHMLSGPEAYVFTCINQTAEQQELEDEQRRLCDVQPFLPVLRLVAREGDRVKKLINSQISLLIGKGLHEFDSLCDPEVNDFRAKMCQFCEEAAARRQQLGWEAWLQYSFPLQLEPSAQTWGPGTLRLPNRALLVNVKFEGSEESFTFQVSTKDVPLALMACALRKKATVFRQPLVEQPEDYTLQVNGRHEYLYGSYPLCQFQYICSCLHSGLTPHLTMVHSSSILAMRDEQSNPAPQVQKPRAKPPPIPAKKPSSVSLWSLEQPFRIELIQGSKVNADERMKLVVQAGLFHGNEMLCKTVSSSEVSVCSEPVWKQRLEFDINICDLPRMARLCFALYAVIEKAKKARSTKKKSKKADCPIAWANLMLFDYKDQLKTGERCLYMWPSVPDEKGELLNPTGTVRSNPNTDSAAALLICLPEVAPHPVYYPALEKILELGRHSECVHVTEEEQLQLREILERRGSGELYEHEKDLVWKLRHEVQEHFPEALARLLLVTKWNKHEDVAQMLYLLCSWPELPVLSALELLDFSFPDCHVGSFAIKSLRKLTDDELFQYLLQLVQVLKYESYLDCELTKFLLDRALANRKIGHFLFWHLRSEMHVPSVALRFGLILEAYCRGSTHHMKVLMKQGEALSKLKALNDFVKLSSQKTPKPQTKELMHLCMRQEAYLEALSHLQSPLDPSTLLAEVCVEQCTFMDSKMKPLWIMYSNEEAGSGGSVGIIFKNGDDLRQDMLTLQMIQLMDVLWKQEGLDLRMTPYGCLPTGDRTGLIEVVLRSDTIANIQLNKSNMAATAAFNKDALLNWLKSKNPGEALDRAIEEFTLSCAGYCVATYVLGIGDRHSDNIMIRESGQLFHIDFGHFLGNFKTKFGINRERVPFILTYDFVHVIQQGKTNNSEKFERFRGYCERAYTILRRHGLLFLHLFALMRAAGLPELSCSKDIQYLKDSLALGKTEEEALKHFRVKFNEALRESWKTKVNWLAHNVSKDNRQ
T2 sequence (P27986 whole entry partner): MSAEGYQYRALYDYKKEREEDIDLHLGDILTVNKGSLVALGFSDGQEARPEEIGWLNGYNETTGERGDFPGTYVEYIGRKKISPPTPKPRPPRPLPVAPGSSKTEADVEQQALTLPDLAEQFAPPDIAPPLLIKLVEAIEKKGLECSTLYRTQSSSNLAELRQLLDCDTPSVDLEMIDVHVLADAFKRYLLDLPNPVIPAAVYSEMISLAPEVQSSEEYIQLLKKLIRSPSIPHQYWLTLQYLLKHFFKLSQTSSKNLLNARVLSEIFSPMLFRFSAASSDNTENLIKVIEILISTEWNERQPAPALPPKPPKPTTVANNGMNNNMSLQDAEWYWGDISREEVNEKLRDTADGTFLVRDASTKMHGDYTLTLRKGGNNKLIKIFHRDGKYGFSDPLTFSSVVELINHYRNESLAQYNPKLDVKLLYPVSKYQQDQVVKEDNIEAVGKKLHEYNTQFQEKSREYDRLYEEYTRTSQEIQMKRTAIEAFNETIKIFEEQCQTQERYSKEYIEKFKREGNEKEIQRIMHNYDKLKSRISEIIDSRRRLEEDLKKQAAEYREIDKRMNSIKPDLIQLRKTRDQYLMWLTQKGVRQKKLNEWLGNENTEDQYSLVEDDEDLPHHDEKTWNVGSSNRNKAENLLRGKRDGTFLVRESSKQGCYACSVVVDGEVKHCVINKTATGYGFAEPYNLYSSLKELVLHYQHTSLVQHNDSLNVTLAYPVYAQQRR
Method: as §1, §2, §3
(§5) The 2× p110 delta/p85 alpha/PIP2:PS mixture was prepared in 50 mM HEPES pH 7.5, 100 mM NaCl, 0.03% CHAPS, 3 mM mgCl2, 1 mM EGTA. The final 10 μL Kinase Reaction consisted of 0.35-2.6 ng p110 delta/p85 alpha and 50 μM PIP2:PS in 32.5 mM HEPES pH 7.5, 50 mM NaCl, 0.015% CHAPS, 1.5 mM mgCl2, 0.5 mM EGTA. After the 1 hour Kinase Reaction incubation, 50 μL of Detection Mix was added.
as §4

PI3Kβ (p110β/p85α) = target: T3, PI3Kβ (p110β/p85α) (Homo sapiens, UniProt P42338); assay: PI3K biochemical enzyme assay (Adapta universal kinase assay), p110 beta/p85 alpha; conditions: for inhibition at 10 µM: read-out: PI3Kβ % inhib; for IC50: Table 1, lower part, read-out: PI3Kβ IC50
T3 construct: purchased Invitrogen
T3 sequence (P42338 whole entry): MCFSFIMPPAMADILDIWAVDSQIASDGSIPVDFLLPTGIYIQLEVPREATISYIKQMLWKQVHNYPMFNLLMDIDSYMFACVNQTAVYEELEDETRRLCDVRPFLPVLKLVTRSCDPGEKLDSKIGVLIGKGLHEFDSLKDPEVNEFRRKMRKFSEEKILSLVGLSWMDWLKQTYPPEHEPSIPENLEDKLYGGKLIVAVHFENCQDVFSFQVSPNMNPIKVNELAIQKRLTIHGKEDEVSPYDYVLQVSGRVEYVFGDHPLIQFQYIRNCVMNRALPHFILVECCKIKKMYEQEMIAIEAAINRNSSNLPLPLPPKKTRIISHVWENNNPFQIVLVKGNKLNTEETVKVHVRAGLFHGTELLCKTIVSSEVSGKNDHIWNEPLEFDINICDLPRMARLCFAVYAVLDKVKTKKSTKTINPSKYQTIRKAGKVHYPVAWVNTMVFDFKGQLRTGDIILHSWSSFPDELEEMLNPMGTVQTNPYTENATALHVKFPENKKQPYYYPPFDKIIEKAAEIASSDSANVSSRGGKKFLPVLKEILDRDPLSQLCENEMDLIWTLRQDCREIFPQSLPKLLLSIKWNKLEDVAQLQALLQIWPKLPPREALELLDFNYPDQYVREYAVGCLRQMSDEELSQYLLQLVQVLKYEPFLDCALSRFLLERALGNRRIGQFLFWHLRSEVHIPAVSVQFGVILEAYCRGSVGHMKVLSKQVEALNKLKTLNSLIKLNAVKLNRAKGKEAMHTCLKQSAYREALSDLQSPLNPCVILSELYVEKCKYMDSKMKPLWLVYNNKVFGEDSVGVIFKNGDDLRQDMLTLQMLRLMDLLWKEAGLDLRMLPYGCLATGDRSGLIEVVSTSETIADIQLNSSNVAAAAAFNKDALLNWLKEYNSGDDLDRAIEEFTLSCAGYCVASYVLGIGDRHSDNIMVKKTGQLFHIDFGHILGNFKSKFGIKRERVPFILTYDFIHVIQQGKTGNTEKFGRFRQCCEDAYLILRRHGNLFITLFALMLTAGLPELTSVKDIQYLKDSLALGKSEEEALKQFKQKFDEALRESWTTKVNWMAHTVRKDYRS
T3 sequence (P27986 whole entry partner): as the sequence (P27986 whole entry partner) above
Method: as §1, §2, §3
The 2× p 110beta/p85 alpha/PIP2:PS mixture was prepared in 50 mM HEPES pH 7.5, 100 mM NaCl, 0.03% CHAPS, 1 mM EGTA, 3 mM mgCl2, and 2 mM DTT. The final 10 μL Kinase Reaction consisted of 35.4 ng p110 beta/p85 alpha and 50 μM PIP2:PS. After the 1 hour Kinase Reaction incubation, 5 μL of Detection Mix was added.
as §4

PI3Kα = target: T4, PI3Kα (Mus musculus, UniProt P42337); assay: PI3Kα-dependent cell-based assay: PDGF-BB mediated AKT phosphorylation in Swiss-3T3 cells; conditions: PDGF-BB-induced AKT phosphorylation, Swiss-3T3 fibroblasts
T4 construct: endogenous in cells; host or cells: Swiss-3T3 fibroblasts (ATCC)
Method: (§6) PDGF-BB-induced AKT phosphorylation in Swiss-3T3 fibroblasts is mediated by p110α. C5a-induced AKT phosphorylation in RAW-264 murine macrophages is mediated exclusively by p110γ.
PI3Kα-Dependent Cell-Based Assay: PDGF-BB Mediated AKT Phosphorylation in Swiss-3T3 Cells
Swiss-3T3 fibroblasts (American Type Culture Collection) were cultured with DMEM containing 10% fetal bovine serum and the antibiotics penicillin and streptomycin. Cells were seeded on a 96-well Tissue Culture Plate at 25,000 cells/well and allowed to reach at least 90% confluency. The cells were starved for 2 to 12 hr in 0.1% FBS containing medium and then were pretreated with inhibitors or DMSO for 2 hr. The cells were stimulated for 15 min with 10 ng/ml PDGF-BB (Cell Signaling Technology) at 37° C. in 5% CO2. The culture medium was removed and cells were fixed for 20 min at room temperature by addition of 100 μl of 4% cell fixing buffer to each well. AKT phosphorylation and total AKT was detected by ELISA.
(§7) Detection of Phospho-Ser-473 AKT and Total AKT by ELISA
(§8) The fixed cells were washed twice with 150 μl of wash buffer (WB) and quenched by incubating with 100 μl of Quenching Buffer for 20 min at room temperature. Cells were washed once with 150 μl WB and blocked by incubating with 100 μl of Blocking Buffer for 1 hr at room temperature. Cells were incubated with 50 μl of primary antibody diluted in Blocking Buffer, either phospho-Ser-473 AKT specific (1:150 dilution) or total-AKT antibody (1:200 dilution), to each specific well. The negative control wells contained 50 μl of Blocking Buffer. Plates were sealed with plate sealing film and incubated overnight at 4° C. Cells were washed twice with 150 μl WB followed by addition of 50 μl per well of DELFIA secondary antibody (50 ng/well, diluted in DELFIA Assay Buffer). After 2 hr incubation at room temperature, cells were washed 4 times with 150 μl of Europium Wash Solution followed by addition of 100 μl of DELFIA Enhancing Solution to each well. Plates were incubated for 5 min in the dark and fluorescent signal was read using SpectraMax M5™ (Molecular Devices). Total AKT level was determined to verify equal cell number per well. The average background fluorescence values from wells that received vehicle control in the absence of PDGF-BB or C5a were subtracted from all the values of experimental conditions. Fluorescence values corresponding to phosphorylated AKT from wells that received PDGF-BB or C5a were normalized to 100% and compound effect was plotted as % change relative to the vehicle control.

PI3Kα (p110α/p85α) = target: T5, PI3Kα (p110α/p85α) (Homo sapiens, UniProt P42336); assay: PI3K biochemical enzyme assay (Adapta universal kinase assay), p110 alpha/p85 alpha; conditions: for IC50: Table 1, lower part, read-out: PI3Kα IC50
T5 construct: purchased Invitrogen
T5 sequence (P42336 whole entry): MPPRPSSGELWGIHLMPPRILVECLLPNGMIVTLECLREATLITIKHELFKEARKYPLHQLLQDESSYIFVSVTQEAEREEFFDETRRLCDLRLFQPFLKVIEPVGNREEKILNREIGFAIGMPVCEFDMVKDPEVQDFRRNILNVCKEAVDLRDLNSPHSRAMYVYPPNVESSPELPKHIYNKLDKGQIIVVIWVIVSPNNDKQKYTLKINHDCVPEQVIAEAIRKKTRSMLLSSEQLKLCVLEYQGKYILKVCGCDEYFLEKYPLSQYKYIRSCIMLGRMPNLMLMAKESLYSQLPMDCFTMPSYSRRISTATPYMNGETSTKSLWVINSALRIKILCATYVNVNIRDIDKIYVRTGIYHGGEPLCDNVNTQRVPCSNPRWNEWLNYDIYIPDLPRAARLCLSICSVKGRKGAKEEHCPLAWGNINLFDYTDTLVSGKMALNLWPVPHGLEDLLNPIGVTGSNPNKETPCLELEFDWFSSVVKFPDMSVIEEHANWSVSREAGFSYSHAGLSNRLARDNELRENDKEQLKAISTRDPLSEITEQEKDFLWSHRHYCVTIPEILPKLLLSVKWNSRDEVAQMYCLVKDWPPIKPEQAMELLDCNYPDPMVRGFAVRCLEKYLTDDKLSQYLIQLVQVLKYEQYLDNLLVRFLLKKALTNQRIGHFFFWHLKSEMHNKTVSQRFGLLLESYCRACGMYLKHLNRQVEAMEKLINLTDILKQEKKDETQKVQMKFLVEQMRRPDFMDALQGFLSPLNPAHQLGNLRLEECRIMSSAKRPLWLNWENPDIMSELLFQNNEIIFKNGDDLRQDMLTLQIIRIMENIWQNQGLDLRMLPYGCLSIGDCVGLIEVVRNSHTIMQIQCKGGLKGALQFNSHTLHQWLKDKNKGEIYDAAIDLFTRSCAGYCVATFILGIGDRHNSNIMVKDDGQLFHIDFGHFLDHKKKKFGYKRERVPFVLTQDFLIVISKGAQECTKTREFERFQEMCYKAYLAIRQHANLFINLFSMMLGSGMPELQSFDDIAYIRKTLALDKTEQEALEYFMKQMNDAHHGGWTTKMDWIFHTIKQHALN
T5 sequence (P27986 whole entry partner): as the sequence (P27986 whole entry partner) above
Method: as §1, §2, §3
as §5, with “p110 alpha/p85” for “p110 delta/p85”, “of 0.3-1.5” for “of 0.35-2.6”, “incubation, 5” for “incubation, 50”
as §4

PI3Kγ = target: T6, PI3Kγ (Mus musculus, UniProt Q9JHG7); assay: PI3Kγ-dependent cell-based assay: C5a-mediated AKT phosphorylation in RAW-264 cells; parameters: species or system murine; conditions: C5a-induced AKT phosphorylation, RAW-264 macrophages
T6 construct: endogenous in cells; host or cells: RAW-264 macrophage cells (ATCC)
Method: as §6
PI3Kγ-Dependent Cell-Based Assay: C5a-Mediated AKT Phosphorylation in RAW-264 Cells
RAW-264 macrophage cells (American Type Culture Collection) were cultured with Dulbecco's modified Eagle medium (DMEM) containing 10% fetal bovine serum and the antibiotics penicillin and streptomycin. Cells were seeded on a 96-well Tissue Culture Plate at 100,000 to 200,000 cells/well the day before the experiment. Next day, cells were starved for 2 hr in 0.1% FBS containing medium. The cells were pretreated with inhibitors or DMSO for 2 hr and stimulated for 5 min with 75 ng/ml C5a (R&D) at 37° C. in 5% CO2. The culture medium was removed and cells were fixed for 20 min at room temperature by addition of 100 μl of 4% cell fixing buffer to each well. AKT phosphorylation and total AKT was detected by ELISA.
as §7, §8

| Compound | increase in gamma potency compared to analog without amino substituent on the purine ring (PI3Kγ (p110 gamma)) [×] | IC50 (PI3Kγ (p110 gamma)) [µM] | IC50 (PI3Kδ (p110δ/p85α)) [µM] | inhibition at 1 µM (PI3Kγ (p110 gamma)) [%] | inhibition at 10 µM (PI3Kγ (p110 gamma)) [%] | inhibition at 1 µM (PI3Kδ (p110δ/p85α); read-out: PI3Kδ % inhib) [%] | inhibition at 10 µM (PI3Kδ (p110δ/p85α); read-out: PI3Kδ % inhib) [%] | inhibition at 10 µM (PI3Kβ (p110β/p85α)) [%] | EC50 (PI3Kα) [µM] | inhibition at 10 µM (PI3Kα (p110α/p85α); read-out: PI3Kα % inhib) [%] | EC50 (PI3Kγ) [µM] | IC50 (PI3Kβ (p110β/p85α)) [µM] | IC50 (PI3Kα (p110α/p85α)) [µM] | inhibition at 1 µM (PI3Kα (p110α/p85α); 1 μM, read-out: PI3Kα % inhib) [%] | inhibition at 0.1 µM (PI3Kδ (p110δ/p85α); 0.1 μM, read-out: PI3Kδ % inhib) [%] |
| --- | --- | --- | --- | --- | --- | --- | --- | --- | --- | --- | --- | --- | --- | --- | --- |
| Cc1cccc2nc(C(C)n3cnc4c(N)ncnc43)c(-c3ccccc3)nc12 (stereo not drawn) [Compound Q6, 9-[1-(5-methyl-3-phenylquinoxalin-2-yl)ethyl]-9H-purin-6-amine] |  |  |  | 48 | 89 | 86 | 100 | 61 | > 20 | 32 | > 20 |  |  |  | 63 |
| CCC(Nc1ncnc2[nH]cnc12)c1nc2cccc(C)c2nc1-c1ccccc1 (stereo not drawn) [Compound Q8] |  |  |  | 30 | 83 | 58 | 100 | 53 | > 20 | 50 | > 20 |  |  |  |  |
| CC(Nc1ncnc2[nH]cnc12)c1nc2ccccc2nc1-c1c(F)cccc1F (stereo not drawn) [Compound Q10] |  |  |  | 12 | 82 | 74 | 99 | 30 | > 20 | 30 | > 20 |  |  |  |  |
| Cc1cccc2nc(C(C)Nc3ncnc4[nH]cnc34)c(-c3ccc(F)cc3)nc12 (stereo not drawn) [Compound Q7] |  |  |  | 61 | 95 | 71 | 100 | 77 | 15.2 | 88 | 3.59 |  |  | 28 |  |
| Cc1ccc(-c2nc3ccccc3nc2C(C)Nc2ncnc3[nH]cnc23)cc1 (stereo not drawn) [Compound Q11] |  |  |  |  | 79 | 45 | 99 | 76 | > 20 | 53 | > 20 |  |  |  |  |
| Nc1ncnc2c1ncn2Cc1nc2ccccc2nc1-c1ccccc1 [Compound Q13] |  | 46.5 | 1.17 |  |  |  |  |  |  |  |  |  |  |  |  |

Now from value to compound, other results behind:

| increase in gamma potency compared to analog without amino substituent on the purine ring (PI3Kγ (p110 gamma)) [×] | IC50 (PI3Kγ (p110 gamma)) [µM] | IC50 (PI3Kδ (p110δ/p85α)) [µM] | inhibition at 1 µM (PI3Kγ (p110 gamma)) [%] | inhibition at 10 µM (PI3Kγ (p110 gamma)) [%] | inhibition at 1 µM (PI3Kδ (p110δ/p85α); read-out: PI3Kδ % inhib) [%] | inhibition at 10 µM (PI3Kδ (p110δ/p85α); read-out: PI3Kδ % inhib) [%] | inhibition at 10 µM (PI3Kβ (p110β/p85α)) [%] | EC50 (PI3Kα) [µM] | inhibition at 10 µM (PI3Kα (p110α/p85α); read-out: PI3Kα % inhib) [%] | EC50 (PI3Kγ) [µM] | IC50 (PI3Kβ (p110β/p85α)) [µM] | IC50 (PI3Kα (p110α/p85α)) [µM] | inhibition at 1 µM (PI3Kα (p110α/p85α); 1 μM, read-out: PI3Kα % inhib) [%] | Compound | inhibition at 0.1 µM (PI3Kδ (p110δ/p85α); 0.1 μM, read-out: PI3Kδ % inhib) [%] |
| --- | --- | --- | --- | --- | --- | --- | --- | --- | --- | --- | --- | --- | --- | --- | --- |
| 8 | 2.38 | 0.25 |  |  |  |  |  |  |  |  |  |  |  | Nc1nc(SCc2nc3ccccc3nc2-c2ccccc2)c2nc[nH]c2n1 [Compound Q15] |  |
| 30 | 0.692 | 0.075 |  |  |  |  |  |  |  |  | 8.5 | 100 |  | Nc1nc(NCc2nc3ccccc3nc2-c2ccccc2)c2nc[nH]c2n1 [Compound Q17] |  |
|  | 17.5 | 0.95 |  |  |  |  |  |  |  |  |  |  |  | c1ccc(-c2nc3ccccc3nc2CSc2ncnc3[nH]cnc23)cc1 [Compound Q14] |  |
|  | 20.5 | 0.19 |  |  |  |  |  |  |  |  | 14.5 | 51 |  | c1ccc(-c2nc3ccccc3nc2CNc2ncnc3[nH]cnc23)cc1 [Compound Q16] |  |
